The values below come from ChEMBL document CHEMBL4229446, “Development of Novel Monoamine Oxidase-B (MAO-B) Inhibitors with Reduced Blood-Brain Barrier Permeability for the Potential Management of Noncentral Nervous System (CNS) Diseases” (J Med Chem, 2018).

The structures appear in SMILES notation. Bounds are passed on as bounds.

The first assay deals with T1, Amine oxidase [flavin-containing] A (Homo sapiens, UniProt P21397).
T1 sequence (P21397 whole entry): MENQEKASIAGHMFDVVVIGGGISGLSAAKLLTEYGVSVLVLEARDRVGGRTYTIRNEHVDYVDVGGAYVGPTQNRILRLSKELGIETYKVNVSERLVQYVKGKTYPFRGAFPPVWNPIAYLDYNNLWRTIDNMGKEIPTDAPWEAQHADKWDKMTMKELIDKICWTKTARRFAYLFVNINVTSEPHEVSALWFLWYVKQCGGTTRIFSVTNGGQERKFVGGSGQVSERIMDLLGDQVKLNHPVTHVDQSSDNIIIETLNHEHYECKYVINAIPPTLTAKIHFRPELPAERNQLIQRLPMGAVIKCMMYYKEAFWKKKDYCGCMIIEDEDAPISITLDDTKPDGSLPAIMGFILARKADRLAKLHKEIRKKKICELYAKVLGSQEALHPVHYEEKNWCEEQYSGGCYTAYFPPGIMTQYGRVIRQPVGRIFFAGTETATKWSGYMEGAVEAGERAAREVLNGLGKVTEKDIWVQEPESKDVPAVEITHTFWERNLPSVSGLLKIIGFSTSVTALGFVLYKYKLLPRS
Nature of the assay: Inhibition of human recombinant MAO-A expressed in baculovirus infected BTI-TN-5B1-4 insect cells using tyramine as substrate preincubated for 1 hr followed by substrate addition and measured after 30 mins by resazurin dye-based fluorescence assay. Background: The colour change of resazurin is a common sign of viable cells or microbes.
In general, IC50 refers to the concentration that inhibits the measured activity by half. With `C#CCN(C)[C@H](C)Cc1ccc(OCc2ccccc2)cc1`, the half-inhibitory concentration (IC50) came out at 0.161 µM.

As to `C[C@H](Cc1ccc(OCc2ccccn2)cc1)N(C)CC(=O)O`, the IC50 is over 50 µM.

For the compound `C[C@H](Cc1ccc(OCc2cccnc2)cc1)N(C)CC(=O)O`, the IC50 was over 50 µM.

With `C[C@H](Cc1ccc(OCc2cccc(C#N)c2)cc1)N(C)CC(=O)O`, the half-maximal inhibitory concentration (IC50) is over 50 µM.

`C[C@H](Cc1ccc(OCc2ccc(Cl)cc2)cc1)N(C)CC(=O)O`: the IC50 amounted to 217 µM.

For `COC(=O)[C@H](Cc1ccc(OCc2cccc(Cl)c2)cc1)N(C)CC(=O)O`, the half-maximal inhibitory concentration (IC50) was over 50 µM.

The next assay deals with T2, Amine oxidase [flavin-containing] B (Homo sapiens, UniProt P27338).
T2 sequence (P27338 whole entry): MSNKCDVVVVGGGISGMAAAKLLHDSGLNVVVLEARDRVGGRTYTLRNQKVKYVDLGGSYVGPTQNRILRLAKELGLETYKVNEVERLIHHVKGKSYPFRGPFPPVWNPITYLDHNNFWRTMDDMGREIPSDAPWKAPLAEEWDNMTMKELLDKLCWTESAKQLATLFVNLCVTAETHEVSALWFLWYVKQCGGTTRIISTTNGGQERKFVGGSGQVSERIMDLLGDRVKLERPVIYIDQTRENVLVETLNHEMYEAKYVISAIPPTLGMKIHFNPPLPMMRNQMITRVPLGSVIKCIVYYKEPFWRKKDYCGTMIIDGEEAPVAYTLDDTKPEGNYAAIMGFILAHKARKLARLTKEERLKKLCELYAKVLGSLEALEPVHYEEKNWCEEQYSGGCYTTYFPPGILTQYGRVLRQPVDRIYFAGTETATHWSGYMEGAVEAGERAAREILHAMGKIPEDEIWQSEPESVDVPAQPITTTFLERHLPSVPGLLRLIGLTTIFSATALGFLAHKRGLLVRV
Nature of the assay: Inhibition of human recombinant MAO-B expressed in baculovirus infected BTI-TN-5B1-4 insect cells using benzylamine as substrate preincubated for 1 hr followed by substrate addition and measured after 30 mins by resazurin dye-based fluorescence assay. It counts as cell-based.
As to `C#CCN(C)[C@H](C)Cc1ccc(OCc2ccccc2)cc1`, the half-inhibitory concentration (IC50) stood at 0.005 µM.

As to `C[C@H](Cc1ccc(OCc2cccnc2)cc1)N(C)CC(=O)O`, the IC50 is over 50 µM.

With `C[C@H](Cc1ccc(OCc2cccc(C#N)c2)cc1)N(C)CC(=O)O`, the IC50 is 21.3 µM.

Turning to `C[C@H](Cc1ccc(OCc2ccc(Cl)cc2)cc1)N(C)CC(=O)O`, the IC50 worked out at 0.864 µM.

`COC(=O)[C@H](Cc1ccc(OCc2cccc(Cl)c2)cc1)N(C)CC(=O)O`: the IC50 worked out at 1.26 µM.
